For the experiment, the target named is T1, GPIIb-IIIa (Homo sapiens, UniProt P05106+P08514).
T1 construct: purchased Innovative Research, Novi, Mich
Nature of the experiment: Solid phase binding assay: competition of fibrinogen binding to immobilized GPIIb-IIIa. On the procedure:
Peptide binding to GPIIb-IIIa was measured using a solid phase binding assay in which competition of fibrinogen binding by testing compounds is measured. The assay was performed as follows. Purified GPIIb-IIIa (Innovative Research, Novi, Mich.) was coated onto 96-well Immulon-B plates at […]×2 μg/mL, diluted in Buffer A (20 mM Tris pH 7.5, 0.15 M NaCl, and 1 mM each of MgCl2, CaCl2, and MnCl2). After overnight incubation at 4° C., the plate was blocked for 1 hour at 30° C., with 3.5% BSA in Buffer B (50 mM Tris pH 7.5, 0.1 M NaCl, and 1 mM each of MgCl2, CaCl2, and MnCl2). After washing 3 times with Buffer B, diluted peptide or protein solutions were combined with 3.5 nM biotinylated fibrinogen in 0.1% BSA/Buffer B and added to the wells, incubating at 30° C. for 2 hr. After washing (3 times, Buffer B), 1:4000 streptavidin-horseradish peroxidase (HRP) was added (Pierce Chemical Co., Rockford, Ill.) for 1 hour at 30° C. After a final washing step (3 times, Buffer B), the plate was developed with Ultra TMB (3,3′,5,5′-tetramentylbenzidine) (Pierce Chemical Co., Rockford, Ill.) for 5 minutes, stopping with an equal volume of 2 M sulfuric acid. Plate absorbances were read at 450 nm, and IC50 values determined using a 4-parameter logistic fit.

Positions of bridges follow the written chain, without caps; N, C: chain ends. Non-standard residues stand in square brackets, D forms with d. Residues, ends and D or L forms follow the SMILES beside them. Groups on a side chain read outwards from the residue. *: point of attachment. FITC = O=C1OC2(c3ccc(O)cc3Oc3cc(O)ccc32)c2ccc(NC(=S)*)cc21; Propanoyl(3-maleimido) = O=C1C=CC(=O)N1CCC(=O)*; hArg = N=C(N)NCCCC[C@H](N)C(=O)O; Ahx = NCCCCCC(=O)O; Mpa = O=C(O)CCS

T1 sequence (P08514 32-887 limits assumed): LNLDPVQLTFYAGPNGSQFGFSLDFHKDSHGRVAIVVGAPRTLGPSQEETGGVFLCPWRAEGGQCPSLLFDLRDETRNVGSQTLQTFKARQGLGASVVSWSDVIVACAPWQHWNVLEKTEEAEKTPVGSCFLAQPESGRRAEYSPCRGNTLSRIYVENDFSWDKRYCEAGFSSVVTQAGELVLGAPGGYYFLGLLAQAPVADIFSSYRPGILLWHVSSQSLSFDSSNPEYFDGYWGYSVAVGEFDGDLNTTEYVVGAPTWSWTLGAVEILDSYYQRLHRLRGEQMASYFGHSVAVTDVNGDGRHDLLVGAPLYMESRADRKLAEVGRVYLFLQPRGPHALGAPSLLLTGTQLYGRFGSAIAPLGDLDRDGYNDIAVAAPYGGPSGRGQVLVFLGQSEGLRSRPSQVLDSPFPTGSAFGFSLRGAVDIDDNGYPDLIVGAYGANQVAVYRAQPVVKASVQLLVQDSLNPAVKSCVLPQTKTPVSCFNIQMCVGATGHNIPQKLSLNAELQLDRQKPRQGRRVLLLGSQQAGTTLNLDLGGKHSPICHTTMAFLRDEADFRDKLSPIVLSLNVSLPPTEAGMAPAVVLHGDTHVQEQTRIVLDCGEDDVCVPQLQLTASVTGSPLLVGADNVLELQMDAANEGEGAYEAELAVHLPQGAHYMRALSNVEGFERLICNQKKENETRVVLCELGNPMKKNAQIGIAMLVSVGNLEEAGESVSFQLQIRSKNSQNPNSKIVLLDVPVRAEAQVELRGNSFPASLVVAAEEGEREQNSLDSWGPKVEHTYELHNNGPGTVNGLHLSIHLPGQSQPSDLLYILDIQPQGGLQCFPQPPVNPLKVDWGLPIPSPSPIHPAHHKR
T1 sequence (P05106 27-788): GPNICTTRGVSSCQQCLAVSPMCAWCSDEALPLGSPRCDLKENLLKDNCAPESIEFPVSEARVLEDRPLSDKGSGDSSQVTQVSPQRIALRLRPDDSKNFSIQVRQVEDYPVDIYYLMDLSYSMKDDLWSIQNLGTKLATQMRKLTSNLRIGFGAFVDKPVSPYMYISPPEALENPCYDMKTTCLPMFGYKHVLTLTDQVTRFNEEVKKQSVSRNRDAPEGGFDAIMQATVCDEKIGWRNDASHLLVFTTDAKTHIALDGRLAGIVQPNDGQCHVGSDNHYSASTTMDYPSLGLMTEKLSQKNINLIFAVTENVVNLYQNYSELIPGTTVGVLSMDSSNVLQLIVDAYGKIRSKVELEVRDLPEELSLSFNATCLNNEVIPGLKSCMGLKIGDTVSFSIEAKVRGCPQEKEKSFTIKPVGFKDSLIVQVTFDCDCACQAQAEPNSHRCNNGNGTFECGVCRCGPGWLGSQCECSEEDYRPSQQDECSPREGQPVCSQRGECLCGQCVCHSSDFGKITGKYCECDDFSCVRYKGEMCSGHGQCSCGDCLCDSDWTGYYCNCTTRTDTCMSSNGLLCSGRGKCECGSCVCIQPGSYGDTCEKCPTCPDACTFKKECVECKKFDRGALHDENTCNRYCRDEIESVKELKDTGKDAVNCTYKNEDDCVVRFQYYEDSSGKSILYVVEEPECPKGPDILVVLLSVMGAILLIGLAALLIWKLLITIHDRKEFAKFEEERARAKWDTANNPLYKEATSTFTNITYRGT

For the compound `N=C(N)NCCCC[C@@H]1NC(=O)CCSSC[C@@H](C(=O)N[C@@H](CCCCNC(=O)CCCCCNC(=O)CCN2C(=O)C=CC2=O)C(N)=O)NC(=O)[C@@H]2CCCN2C(=O)[C@H](Cc2c[nH]c3ccccc23)NC(=O)[C@H](CC(=O)O)NC(=O)CNC1=O` [BHRF-1] ([Mpa][hArg]GDWPCK([Ahx-Propanoyl(3-maleimido)])-NH2; disulfide 1-7), the “Blocking of fibrinogen binding to immobilized GPIIb-IIIa, in words” value is recorded as “potently blocked”. In the case of `N=C(N)NCCCC[C@@H]1NC(=O)CCSSC[C@@H](C(=O)N[C@@H](CCCCNC(=O)CCCCCNC(=O)CCN2C(=O)C=CC2=O)C(=O)N[C@@H](CCCCNC(=S)Nc2ccc3c(c2)C(=O)OC32c3ccc(O)cc3Oc3cc(O)ccc32)C(N)=O)NC(=O)[C@@H]2CCCN2C(=O)[C@H](Cc2c[nH]c3ccccc23)NC(=O)[C@H](CC(=O)O)NC(=O)CNC1=O` [BHRF-3] ([Mpa][hArg]GDWPCK([Ahx-Propanoyl(3-maleimido)])K(FITC)-NH2; disulfide 1-7), the “Blocking of fibrinogen binding to immobilized GPIIb-IIIa, in words” value is listed as “potently blocked”. As to `N=C(N)NCCCC[C@@H]1NC(=O)CCSSC[C@@H](C(N)=O)NC(=O)[C@@H]2CCCN2C(=O)[C@H](Cc2c[nH]c3ccccc23)NC(=O)[C@H](CC(=O)O)NC(=O)CNC1=O` [Integrelin, reference compound] ([Mpa][hArg]GDWPC-NH2; disulfide 1-7), the IC50 (3.5 nM biotinylated fibrinogen, mean +/- spread, N in separate column or in text, read-out: IC50, inhibition of fibrinogen binding to immobilized GPIIb/IIIa) worked out at 1.3 nM.

The values are drawn from patent US10035840B2, “Targeted coagulation factors and method of using the same” (Bayer HealthCare LLC, priority 2008, dated 2018).
